Patent US11541055B2, “Inhibitors of human immunodeficiency virus replication” (ViiV Healthcare UK (No. 5) LIMITED, priority 2018, dated 2023)

How the values were obtained:
[1] = tested on: recombinant NL4-3 virus (Renilla luciferase) in MT-2 cells; assay: HIV cell culture assay (antiviral activity, luciferase readout); assay type: cell-based; conditions: Renilla, NL43
How it was run: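 Antiviral EC50 was derived via the median effect equation from luciferase signal. The signal came from MT-2 cultures infected for 4–5 days with a nef-deleted, Renilla luciferase-expressing NL4-3 reporter virus (made in 293T cells) in the presence of compound dilutions.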

[2] = Compound cytotoxicity, XTT-based colorimetric assay; assay type: cell-based; conditions: human; uninfected MT2 cells, day 4, XTT
How it was run: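 Run under the antiviral-assay protocol but without virus. Viability was read on day 4 and CC50 values were derived from the readout.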

Row | Compound | EC50 [1] [pM] | CC50 at 4 days [2] [pM]
1 | Cc1cc(C(F)(F)F)cc(-c2ccc3c(=O)n(-c4ccc(Cl)c5c(NS(C)(=O)=O)nn(C)c45)c([C@H](Cc4cc(F)cc(F)c4)NC(=O)Cn4nc(C(F)F)c5c4C(F)(F)[C@@H]4C[C@H]54)nc3c2)n1 (atropisomer, axis not shown; (P)) [Example 48, N—((S)-1-((3P)-3-(4-chloro-1-methyl-3-(methylsulfonamido)-1H-indazol-7-yl)-7-(6-methyl-4-(trifluoromethyl)pyridin-2-yl)-4-oxo-3,4-dihydroquinazolin-2-yl)-2-(3,5-difluorophenyl)ethyl)-2-((3bS,4aR)-3-(difluoromethyl)-5,5-difluoro-3b,4,4a,5-tetrahydro-1H-cyclopropa[3,4]cyclopenta[1,2-c]pyrazol-1-yl)acetamide] | 500 | > 500000
2 | Cc1nnc(-c2ccc3c(=O)n(-c4ccc(Cl)c5c(NS(=O)(=O)C6CC6)nn(CC(F)F)c45)c([C@H](Cc4cc(F)cc(F)c4)NC(=O)Cn4nc(C(F)F)c5c4C(F)(F)[C@@H]4C[C@H]54)nc3c2)nc1C (atropisomer, axis not shown; (P)) [Example 87, N—((S)-1-((3P)-3-(4-chloro-3-(cyclopropanesulfonamido)-1-(2,2-difluoroethyl)-1H-indazol-7-yl)-7-(5,6-dimethyl-1,2,4-triazin-3-yl)-4-oxo-3,4-dihydroquinazolin-2-yl)-2-(3,5-difluorophenyl)ethyl)-2-((3bS,4aR)-3-(difluoromethyl)-5,5-difluoro-3b,4,4a,5-tetrahydro-1H-cyclopropa[3,4]cyclopenta[1,2-c]pyrazol-1-yl)acetamide] | 58 | > 500000
3 | COCc1nc(C)cc(-c2ccc3c(=O)n(-c4ccc(Cl)c5c(NS(C)(=O)=O)nn(C)c45)c([C@H](Cc4cc(F)cc(F)c4)NC(=O)Cn4nc(C(F)F)c5c4C(F)(F)[C@@H]4C[C@H]54)nc3c2)n1 (atropisomer, axis not shown; (P)) [Example 75, N—((S)-1-((3P)-3-(4-chloro-1-methyl-3-(methylsulfonamido)-1H-indazol-7-yl)-7-(2-(methoxymethyl)-6-methylpyrimidin-4-yl)-4-oxo-3,4-dihydroquinazolin-2-yl)-2-(3,5-difluorophenyl)ethyl)-2-((3bS,4aR)-3-(difluoromethyl)-5,5-difluoro-3b,4,4a,5-tetrahydro-1H-cyclopropa[3,4]cyclopenta[1,2-c]pyrazol-1-yl)acetamide] | 77 | > 500000
4 | Cc1ncc(-c2ccc3c(=O)n(-c4ccc(Cl)c5c(NS(C)(=O)=O)nn(CC(F)F)c45)c([C@H](Cc4cc(F)cc(F)c4)NC(=O)Cn4nc(C(F)F)c5c4C(F)(F)[C@@H]4C[C@H]54)nc3c2)s1 (atropisomer, axis not shown) [Example 123, N-[(1S)-1-{3-[4-chloro-1-(2,2-difluoroethyl)-3-methanesulfonamido-1H-indazol-7-yl]-7-(2-methyl-1,3-thiazol-5-yl)-4-oxo-3,4-dihydroquinazolin-2-yl}-2-(3,5-difluorophenyl)ethyl]-2-[(2S,4R)-9-(difluoromethyl)-5,5-difluoro-7,8-diazatricyclo[4.3.0.0^2,^4]nona-1(6),8-dien-7-yl]acetamide] | 87 | > 500000
5 | Cc1ccc(-n2c([C@H](Cc3cc(F)cc(F)c3)NC(=O)Cn3nc(C(F)F)c4c3C(F)(F)[C@@H]3C[C@H]43)nc3cc(-c4cccnn4)ccc3c2=O)c2c1c(NS(C)(=O)=O)nn2C (atropisomer, axis not shown) [Example 141, 2-[(2S,4R)-9-(difluoromethyl)-5,5-difluoro-7,8-diazatricyclo[4.3.0.0^2,^4]nona-1(6),8-dien-7-yl]-N-[(1S)-2-(3,5-difluorophenyl)-1-[3-(3-methanesulfonamido-1,4-dimethyl-1H-indazol-7-yl)-4-oxo-7-(pyridazin-3-yl)-3,4-dihydroquinazolin-2-yl]ethyl]acetamide] | 130 | > 500000
6 | Cc1ccc(-n2c([C@H](Cc3cc(F)cc(F)c3)NC(=O)Cn3nc(C(F)F)c4c3C(F)(F)[C@@H]3C[C@H]43)nc3cc(-c4ccccc4N(C)S(C)(=O)=O)ccc3c2=O)c2c1c(NS(=O)(=O)C1CC1)nn2CC(F)F (atropisomer, axis not shown) [Example 145, N-[(1S)-1-{3-[3-cyclopropanesulfonamido-1-(2,2-difluoroethyl)-4-methyl-1H-indazol-7-yl]-7-[2-(N-methylmethanesulfonamido)phenyl]-4-oxo-3,4-dihydroquinazolin-2-yl}-2-(3,5-difluorophenyl)ethyl]-2-[(2S,4R)-9-(difluoromethyl)-5,5-difluoro-7,8-diazatricyclo[4.3.0.0^2,^4]nona-1(6),8-dien-7-yl]acetamide] | 680 | > 500000
7 | CCc1nccnc1-c1ccc2c(=O)n(-c3ccc(Cl)c4c(NS(C)(=O)=O)nn(C)c34)c([C@H](Cc3cc(F)cc(F)c3)NC(=O)Cn3nc(C(F)F)c4c3C(F)(F)[C@@H]3C[C@H]43)nc2c1 (atropisomer, axis not shown; (P)) [Example 17, N—((S)-1-((3P)-3-(4-chloro-1-methyl-3-(methylsulfonamido)-1H-indazol-7-yl)-7-(3-ethylpyrazin-2-yl)-4-oxo-3,4-dihydroquinazolin-2-yl)-2-(3,5-difluorophenyl)ethyl)-2-((3bS,4aR)-3-(difluoromethyl)-5,5-difluoro-3b,4,4a,5-tetrahydro-1H-cyclopropa[3,4]cyclopenta[1,2-c]pyrazol-1-yl)acetamide] | 110 | > 500000
8 | CS(=O)(=O)Nc1nn(CC(F)(F)F)c2c(-n3c([C@H](Cc4cc(F)cc(F)c4)NC(=O)Cn4nc(C(F)F)c5c4C(F)(F)[C@@H]4C[C@H]54)nc4cc(-c5nccc(C(F)F)n5)ccc4c3=O)ccc(Cl)c12 (atropisomer, axis not shown) [Example 104, N-[(1S)-1-{3-[4-chloro-3-methanesulfonamido-1-(2,2,2-trifluoroethyl)-1H-indazol-7-yl]-7-[4-(difluoromethyl)pyrimidin-2-yl]-4-oxo-3,4-dihydroquinazolin-2-yl}-2-(3,5-difluorophenyl)ethyl]-2-[(2S,4R)-9-(difluoromethyl)-5,5-difluoro-7,8-diazatricyclo[4.3.0.0^2,^4]nona-1(6),8-dien-7-yl]acetamide] | 63 | > 500000
9 | CN(c1cccc(-c2ccc3c(=O)n(-c4ccc(Cl)c5c(NS(=O)(=O)C6CC6)nn(CC(F)F)c45)c([C@H](Cc4cc(F)cc(F)c4)NC(=O)Cn4nc(C(F)F)c5c4C(F)(F)[C@@H]4C[C@H]54)nc3c2)c1)S(C)(=O)=O (atropisomer, axis not shown) [Example 148, N-[(1S)-1-{3-[4-chloro-3-cyclopropanesulfonamido-1-(2,2-difluoroethyl)-1H-indazol-7-yl]-7-[3-(N-methylmethanesulfonamido)phenyl]-4-oxo-3,4-dihydroquinazolin-2-yl}-2-(3,5-difluorophenyl)ethyl]-2-[(2S,4R)-9-(difluoromethyl)-5,5-difluoro-7,8-diazatricyclo[4.3.0.0^2,^4]nona-1(6),8-dien-7-yl]acetamide] | 280 | > 500000
10 | Cc1ccc(F)c(-c2ccc3c(=O)n(-c4ccc(Cl)c5c(NS(C)(=O)=O)nn(CC(F)F)c45)c([C@H](Cc4cc(F)cc(F)c4)NC(=O)Cn4nc(C(F)F)c5c4C(F)(F)[C@@H]4C[C@H]54)nc3c2)n1 (atropisomer, axis not shown) [Example 122] | 80 | > 500000
